Measurements as given in patent US6878388B1, “Vanadium compounds for treating proliferative cell disorders” (Parker Hughes Institute, priority 2000, dated 2005).

Tests used:
[1] = test system: U87 human glioblastoma xenografts; assay: SCID mouse xenograft model of human glioblastoma; type: in vivo, SCID mice
Method: FIGS. 1A-1B illustrate the in vivo antitumor activity of the vanadium compound, [VO(SO4)(Me2-Phen)2] against human glioblastoma and breast cancer in SCID mice. The effects of daily treatment with [VO(SO4)(Me2-Phen)2] (10 mg/kg/day) or 5% DMSO in PBS (given five days per week for four weeks beginning the day after inoculation) on tumor growth and progression of glioblastoma (FIG. 1A) and breast cancer (FIG. 1B) are illustrated. Comparisons between groups were done using the log-rank test.
The animal protocols used in this study were approved by the Parker Hughes Institute Institutional Animal Care and Use Committee (IACUC). […]
The right and left hind legs of the SCID mice were inoculated subcutaneously with 1×10^6 U87 human glioblastoma and 1×10^6 MDA-MB-231 beast cancer cells, respectively, in 0.1 mL PBS. […] Mice were monitored daily for health status as well as tumor growth and were sacrificed if they became moribund, developed tumors which impeded their ability to attain food or water, or at the ed of the six-week observation period. Tumors were measured using Vernier calipers three times per week. Tumor volumes were calculated according to the following formula, as described previously (Narla et al., Clin Cancer Res., 4: 1405-14, 1998; Friedman et al., Cancer Res., 55: 2853-2857, 1995): Tumor volume=(Width)^2(Length)/2. […]

[2] = test system: MCF-7 breast cancer cells; assay: MTT cytotoxicity assay, MCF-7; type: cell-based, human; settings: MCF-7 cells, 48 h incubation, 3 independent experiments, read-out: IC50 (mean ± SE)
Method: Human brain tumor cells lines U87 MG (Cat.# HTB-14), U118 MG (Cat. # HTB-15), U138 (Cat # HTB-16), U373 MG (CAT. # HTB-17), and T98G (Cat. # CRL-1690) and breast cancer cell lines BT-20 (Cat # HTB-19), MDA-MB-231 (Cat # HTB-26), MDA-MB-361 (Cat # HTB-27), and MCF-7 (Cat # HTB-22) were obtained from American Type Culture Collection (ATCC, Rockville, Md.) and maintained as continuous cell lines in Dulbecco's modified Eagles's medium (U87, U118, U138, U373, T98 and BT-20) or Leibovitz's L-15 medium (MDA-MB-231 and MDA-MB-361). All media were supplemented with 10% fetal calf serum (FCS), 4 mM glutamine, 100 U/ml penicillin G and […] streptomycin sulfate. All tissue culture reagents were obtained from Life Technologies Inc. (GIBCO-BRL, Gaithersburg, Md.).
The cytotoxicity of [VO(SO4)(Me2-Phen)2] against human cancer cell lines was analyzed using the MTT (3-[4,5-dimethylthiazol-2-yl]-2,5-diphenyl tetrazolium bromide) assay (Boehringer Mannheim Corp., Indianapolis, Ind.) as described previously (Narla et al., Clin Cancer Res., 4: 1405-1414, 1998). […] The absorbance at 540 nm (a reference wavelength of 690 nm was used) of the solution in each well was measured using a microplate reader (Labsystems). The percent survival and the IC50 values were calculated using Graphpad Prism v2.0 (Graphpad Software, Inc., San Diego, Calif.) as described previously (Narla et al., Supra). […]

For Cc1ccnc2c1ccc1c(C)ccnc12.Cc1ccnc2c1ccc1c(C)ccnc12.O=S(=O)([O-])[O-].[O]=[V+2] [[VO(SO4)(Me2-Phen)2], bis(4,7-dimethyl-1,10-phenanthroline) sulfatooxovanadium (IV)], the “average size of tumor xenografts” value ([1]; U87, 1.5 months after inoculation, 10 mg/kg i.p., vehicle control 6928±653, P=0.007) was 3199±646 mm^3, the “mice remaining alive and free of detectable tumors for >16 days” value ([1]; U87 xenografts, 10 mg/kg/dose i.p., five days per week for four weeks) was 40% and the IC50 [2] was 2.3 ± 0.4 µM.
